# Laboratory results: PubChem BioAssay AID1918953 (Molecular Pharmacology Branch, DTP, NCI, 2023)
# pIC50: −log10 of the molar value.
# System: MDA-MB-231 complex spheroid viability
# Assay: Anticancer human tumor MDA-MB-231/ATCC cell line growth inhibition;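 further: drug exposure lasted 7 days starting on day 3 of spheroid growth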
# Conditions: for pIC50: curve of first compound; for viability, T/C: stronger effect = lower value
# Procedure, shortened: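 Multicellular complex spheroids of tumor cells with human endothelial cells (HUVEC) and mesenchymal stem cells; the LSD1 inhibitor iadademstat was combined with standard-of-care or investigational agents. Top concentration at or near clinical Cmax, half-log dilutions; final DMSO ≤0.25%.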
# [1] = second compound 0.1 µM, first compound 0.000316 µM
# [2] = second compound 0.1 µM, first compound 0.001 µM
# [3] = second compound 0.1 µM, first compound 0.00316 µM
# [4] = second compound 0.1 µM, first compound 0.01 µM
# [5] = second compound 0.1 µM, first compound 0.0316 µM
# [6] = second compound 0.1 µM, first compound 0.1 µM
# [7] = second compound 0.316 µM, first compound 0.000316 µM
# [8] = second compound 0.316 µM, first compound 0.001 µM
# [9] = second compound 0.316 µM, first compound 0.00316 µM
# [10] = second compound 0.316 µM, first compound 0.01 µM
# [11] = second compound 0.316 µM, first compound 0.0316 µM
# [12] = second compound 0.316 µM, first compound 0.1 µM
# [13] = second compound 1 µM, first compound 0.000316 µM
# [14] = second compound 1 µM, first compound 0.001 µM
# [15] = second compound 1 µM, first compound 0.00316 µM
# [16] = second compound 1 µM, first compound 0.01 µM
# [17] = second compound 1 µM, first compound 0.0316 µM
# [18] = second compound 1 µM, first compound 0.1 µM
# [19] = second compound 3.16 µM, first compound 0.000316 µM
# [20] = second compound 3.16 µM, first compound 0.001 µM
# [21] = second compound 3.16 µM, first compound 0.00316 µM
# [22] = second compound 3.16 µM, first compound 0.01 µM
# [23] = second compound 3.16 µM, first compound 0.0316 µM
# [24] = second compound 3.16 µM, first compound 0.1 µM
# [25] = second compound 10 µM, first compound 0.000316 µM
# [26] = second compound 10 µM, first compound 0.001 µM
# [27] = second compound 10 µM, first compound 0.00316 µM
# [28] = second compound 10 µM, first compound 0.01 µM
# [29] = second compound 10 µM, first compound 0.0316 µM
# [30] = second compound 10 µM, first compound 0.1 µM
smiles,measurement,setting,value
CC(C)CC(NC(=O)C(Cc1ccccc1)NC(=O)c1cnccn1)B(O)O (stereo not given) + NC1CCC(NC2CC2c2ccccc2)CC1,pIC50,second compound 0.1 µM,8.92
same,pIC50,second compound 0.316 µM,8.91
same,pIC50,second compound 1 µM,8.98
same,pIC50,second compound 3.16 µM,9.14
same,pIC50,second compound 10 µM,9.32
same,"viability, T/C",[1],106%
same,"viability, T/C",[2],59.2%
same,"viability, T/C",[3],1.89%
same,"viability, T/C",[4],0.42%
same,"viability, T/C",[5],0.53%
same,"viability, T/C",[6],3.01%
same,"viability, T/C",[7],107%
same,"viability, T/C",[8],60.7%
same,"viability, T/C",[9],1.73%
same,"viability, T/C",[10],0.23%
same,"viability, T/C",[11],0.28%
same,"viability, T/C",[12],0.27%
same,"viability, T/C",[13],104%
same,"viability, T/C",[14],52%
same,"viability, T/C",[15],3.37%
same,"viability, T/C",[16],0.18%
same,"viability, T/C",[17],0.38%
same,"viability, T/C",[18],0.72%
same,"viability, T/C",[19],70%
same,"viability, T/C",[20],42.4%
same,"viability, T/C",[21],1.87%
same,"viability, T/C",[22],0.16%
same,"viability, T/C",[23],0.08%
same,"viability, T/C",[24],0.54%
same,"viability, T/C",[25],58.9%
same,"viability, T/C",[26],34.1%
same,"viability, T/C",[27],0.9%
same,"viability, T/C",[28],0.23%
same,"viability, T/C",[29],1.54%
same,"viability, T/C",[30],1.08%
CC(C)CC(NC(=O)CNC(=O)c1cc(Cl)ccc1Cl)B1OC(=O)CC(CC(=O)O)(C(=O)O)O1 (stereo not given) + NC1CCC(NC2CC2c2ccccc2)CC1,pIC50,second compound 0.1 µM,8.14
same,pIC50,second compound 0.316 µM,8.15
same,pIC50,second compound 1 µM,8.14
same,pIC50,second compound 3.16 µM,8.24
same,pIC50,second compound 10 µM,8.40
same,"viability, T/C",[1],105%
same,"viability, T/C",[2],110%
same,"viability, T/C",[3],85%
same,"viability, T/C",[4],36.5%
same,"viability, T/C",[5],5.81%
same,"viability, T/C",[6],0.78%
same,"viability, T/C",[7],98.9%
same,"viability, T/C",[8],107%
same,"viability, T/C",[9],81.8%
same,"viability, T/C",[10],36.4%
same,"viability, T/C",[11],5.22%
same,"viability, T/C",[12],0.88%
same,"viability, T/C",[13],102%
same,"viability, T/C",[14],107%
same,"viability, T/C",[15],85.8%
same,"viability, T/C",[16],36%
same,"viability, T/C",[17],4.74%
same,"viability, T/C",[18],0.52%
same,"viability, T/C",[19],83.8%
same,"viability, T/C",[20],86.7%
same,"viability, T/C",[21],69.4%
same,"viability, T/C",[22],31.7%
same,"viability, T/C",[23],3.87%
same,"viability, T/C",[24],0.63%
same,"viability, T/C",[25],57.6%
same,"viability, T/C",[26],61.2%
same,"viability, T/C",[27],55.8%
same,"viability, T/C",[28],25.7%
same,"viability, T/C",[29],2.19%
same,"viability, T/C",[30],0.65%
Nc1ccccc1NC(=O)c1ccc(CNC(=O)OCc2cccnc2)cc1 + NC1CCC(NC2CC2c2ccccc2)CC1,pIC50,second compound 0.1 µM,7.21
same,pIC50,second compound 0.316 µM,7.18
same,pIC50,second compound 1 µM,7.29
same,pIC50,second compound 3.16 µM,7.41
same,pIC50,second compound 10 µM,7.58
same,"viability, T/C","second compound 0.1 µM, first compound 0.00949 µM",89.4%
same,"viability, T/C","second compound 0.1 µM, first compound 0.03 µM",61%
same,"viability, T/C","second compound 0.1 µM, first compound 0.0949 µM",39%
same,"viability, T/C","second compound 0.1 µM, first compound 0.3 µM",31.5%
same,"viability, T/C","second compound 0.1 µM, first compound 0.949 µM",15.9%
same,"viability, T/C","second compound 0.1 µM, first compound 3 µM",3.58%
same,"viability, T/C","second compound 0.316 µM, first compound 0.00949 µM",86.2%
same,"viability, T/C","second compound 0.316 µM, first compound 0.03 µM",64.6%
same,"viability, T/C","second compound 0.316 µM, first compound 0.0949 µM",39.6%
same,"viability, T/C","second compound 0.316 µM, first compound 0.3 µM",29.4%
same,"viability, T/C","second compound 0.316 µM, first compound 0.949 µM",16.3%
same,"viability, T/C","second compound 0.316 µM, first compound 3 µM",2.82%
same,"viability, T/C","second compound 1 µM, first compound 0.00949 µM",85%
same,"viability, T/C","second compound 1 µM, first compound 0.03 µM",58%
same,"viability, T/C","second compound 1 µM, first compound 0.0949 µM",37%
same,"viability, T/C","second compound 1 µM, first compound 0.3 µM",26.4%
same,"viability, T/C","second compound 1 µM, first compound 0.949 µM",14.3%
same,"viability, T/C","second compound 1 µM, first compound 3 µM",2.97%
same,"viability, T/C","second compound 3.16 µM, first compound 0.00949 µM",72.7%
same,"viability, T/C","second compound 3.16 µM, first compound 0.03 µM",54.1%
same,"viability, T/C","second compound 3.16 µM, first compound 0.0949 µM",35.7%
same,"viability, T/C","second compound 3.16 µM, first compound 0.3 µM",20.6%
same,"viability, T/C","second compound 3.16 µM, first compound 0.949 µM",10.1%
same,"viability, T/C","second compound 3.16 µM, first compound 3 µM",1.4%
same,"viability, T/C","second compound 10 µM, first compound 0.00949 µM",63.2%
same,"viability, T/C","second compound 10 µM, first compound 0.03 µM",47.7%
same,"viability, T/C","second compound 10 µM, first compound 0.0949 µM",32.2%
same,"viability, T/C","second compound 10 µM, first compound 0.3 µM",15.1%
same,"viability, T/C","second compound 10 µM, first compound 0.949 µM",7.15%
same,"viability, T/C","second compound 10 µM, first compound 3 µM",0.5%
O=C(c1cc(Cc2n[nH]c(=O)c3ccccc23)ccc1F)N1CCN(C(=O)C2CC2)CC1 + NC1CCC(NC2CC2c2ccccc2)CC1,pIC50,second compound 0.1 µM,< 5.00
same,pIC50,second compound 0.316 µM,< 5.00
same,pIC50,second compound 1 µM,< 5.00
same,pIC50,second compound 3.16 µM,5.12
same,pIC50,second compound 10 µM,5.61
same,"viability, T/C",[5],101%
same,"viability, T/C",[6],94.5%
same,"viability, T/C","second compound 0.1 µM, first compound 0.316 µM",87.5%
same,"viability, T/C","second compound 0.1 µM, first compound 1 µM",79.3%
same,"viability, T/C","second compound 0.1 µM, first compound 3.16 µM",66.8%
same,"viability, T/C","second compound 0.1 µM, first compound 10 µM",56.2%
same,"viability, T/C",[11],98.9%
same,"viability, T/C",[12],102%
same,"viability, T/C","second compound 0.316 µM, first compound 0.316 µM",93.5%
same,"viability, T/C","second compound 0.316 µM, first compound 1 µM",82.1%
same,"viability, T/C","second compound 0.316 µM, first compound 3.16 µM",66.1%
same,"viability, T/C","second compound 0.316 µM, first compound 10 µM",52.7%
same,"viability, T/C",[17],93.1%
same,"viability, T/C",[18],94.5%
same,"viability, T/C","second compound 1 µM, first compound 0.316 µM",84.3%
same,"viability, T/C","second compound 1 µM, first compound 1 µM",74.5%
same,"viability, T/C","second compound 1 µM, first compound 3.16 µM",67.1%
same,"viability, T/C","second compound 1 µM, first compound 10 µM",57.6%
same,"viability, T/C",[23],80.8%
same,"viability, T/C",[24],77.5%
same,"viability, T/C","second compound 3.16 µM, first compound 0.316 µM",74.2%
same,"viability, T/C","second compound 3.16 µM, first compound 1 µM",70.2%
same,"viability, T/C","second compound 3.16 µM, first compound 3.16 µM",56.8%
same,"viability, T/C","second compound 3.16 µM, first compound 10 µM",47.9%
same,"viability, T/C",[29],64.4%
same,"viability, T/C",[30],61.9%
same,"viability, T/C","second compound 10 µM, first compound 0.316 µM",63%
same,"viability, T/C","second compound 10 µM, first compound 1 µM",55.3%
same,"viability, T/C","second compound 10 µM, first compound 3.16 µM",47.4%
same,"viability, T/C","second compound 10 µM, first compound 10 µM",37.6%
